Test results taken from patent publication US20210277057A1, “AD[…]-OPIATE RECEPTOR PEPTIDE COMPOUNDS” (Cytogel Pharma, LLC, priority 2009, published 2021).
Structures can show the parent of a compound that is named as a salt.

Experiments:
[1] = tested on: rat; test: standard rat tail flick assay; assay type: in vivo; conditions: suspension in 20% PEG
Description: The assay was the standard rat tail flick assay. Test agents were administered intravenously as suspensions in 20% PEG.

[2] = tested on: delta receptors; test: binding to delta receptors relative to mu opiate receptor; conditions: delta versus mu opiate receptor
[3] = tested on: kappa receptors; test: binding to kappa receptors relative to mu opiate receptor; conditions: kappa versus mu opiate receptor

In the case of `NC(Cc1ccc(O)cc1)C(=O)NC1CCCCNC(=O)C(Cc2ccccc2)NC(=O)C(Cc2c[nH]c3ccccc23)NC1=O` [CYT-1010 Acetate, H-Tyr-c-[D-Lys-Trp-Phe]], the “Activity % MPE Ave” value ([1]; IV dose 2 mg/kg, listed as Acetate, 2 mg/kg) is reported as 50.0% and the “Activity % MPE Ave” value ([1]; IV dose 4 mg/kg, listed as Acetate, 4 mg/kg) is reported as 83.3%.

In the case of `NC(Cc1ccc(O)cc1)C(=O)NC1CCCCNC(=O)C(Cc2ccccc2)NC(=O)C(Cc2c[nH]c3ccccc23)NC1=O` [CYT-1010 Aspartate, H-Tyr-c-[D-Lys-Trp-Phe]], the “Activity % MPE Ave” value ([1]; IV dose 2 mg/kg, listed as Aspartate, 2 mg/kg) is reported as 7.4%.

For `NC(Cc1ccc(O)cc1)C(=O)NC1CCCCNC(=O)C(Cc2ccccc2)NC(=O)C(Cc2c[nH]c3ccccc23)NC1=O` [CYT-1010 Free Base, H-Tyr-c-[D-Lys-Trp-Phe]], the “Activity % MPE Ave” value ([1]; IV dose 2 mg/kg, listed as Free Base, 2 mg/kg) was 77.7% and the “Activity % MPE Ave” value ([1]; IV dose 4 mg/kg, listed as Free Base, 4 mg/kg) was 100.0%.

`NC(Cc1ccc(O)cc1)C(=O)NC1CCCCNC(=O)C(Cc2ccccc2)NC(=O)C(Cc2c[nH]c3ccccc23)NC1=O` [CYT-1010 HCL, H-Tyr-c-[D-Lys-Trp-Phe]] was tested, and the “Activity % MPE Ave” value ([1]; IV dose 4 mg/kg, listed as HCL, 4 mg/kg) was 0.0%.

`NC(Cc1ccc(O)cc1)C(=O)NC1CCCCNC(=O)C(Cc2ccccc2)NC(=O)C(Cc2c[nH]c3ccccc23)NC1=O` [CYT-1010 Lactate, H-Tyr-c-[D-Lys-Trp-Phe]] was tested, and the “Activity % MPE Ave” value ([1]; IV dose 2 mg/kg, listed as Lactate, 2 mg/kg) was 1.4%.

For `NC(Cc1ccc(O)cc1)C(=O)NC1CCCCNC(=O)C(Cc2ccccc2)NC(=O)C(Cc2c[nH]c3ccccc23)NC1=O` [CYT-1010 TFA, H-Tyr-c-[D-Lys-Trp-Phe]], the “Activity % MPE Ave” value ([1]; IV dose 4 mg/kg, listed as TFA, 4 mg/kg) was 25.4% and the “Activity % MPE Ave” value ([1]; IV dose 8 mg/kg) was 71.2%.

For H-Tyr-Pro-Trp-Phe-NH2 [SEQ ID NO:1], the “weaker binding to delta receptors (selectivity for mu opiate receptor)” value [2] was “over 4000 fold” and the “weaker binding to kappa receptors (selectivity for mu opiate receptor)” value [3] was “over 15,000 fold”.
